The structures appear in SMILES notation. Converted amounts (≈) assume the structure as drawn.

For the data set the following is noted: buffer; pH 7.4; 200.0 µM.
Consider `CCCCCC1=NN2C(=O)CC(=O)N=C2S1`, for which the solubility (kinetic) is above 35.9 µg/mL.
Under `O=C(OC(C(=O)c1c[nH]c2ccccc12)c1ccccc1)c1cnccn1` (stereo not drawn) stands 47 µg/mL (≈ 132 µM); under `O=C(Cn1cccc(C(F)(F)F)c1=O)c1ccc(Cl)cc1`, above 47.4 µg/mL; under `Nc1ccc(Sc2nc3ccccc3[nH]2)cc1`, above 36.2 µg/mL.
`Cc1c(C(=O)NCc2ccco2)oc2ccccc12` displayed a kinetic solubility of 6.3 µg/mL (≈ 24.7 µM).
Under `CC1CCN(C(=O)c2ccc(S(=O)(=O)N3CCCCCC3)cc2)CC1` stands 26 µg/mL (≈ 71.3 µM); under `O=C1C(=O)c2ccccc2C(O)=C1c1cccc([N+](=O)[O-])c1`, above 44.3 µg/mL.
`CC(=O)Oc1ccc2c(=O)oc(-c3ccccc3C)nc2c1` registered a kinetic solubility of 8.4 µg/mL (≈ 28.4 µM).
With `Cc1nc(SCC(=O)N2CC(=O)Nc3ccccc32)nc(C)c1C`, the kinetic solubility was 10.8 µg/mL (≈ 31.5 µM).
Regarding `CCc1noc(C)c1C(=O)OCC(=O)NC(=O)c1ccccc1OC`, the solubility (kinetic) came to 18.6 µg/mL (≈ 53.7 µM).
`CC(=O)NCCc1c[nH]c2ccc(OCc3ccccc3)cc12`: the solubility (kinetic) turned out to be 42.4 µg/mL (≈ 137 µM).
For the molecule `O=C(Nc1cccc2ccccc12)NC1Cc2ccccc2C1`, the kinetic solubility was below 0.3 µg/mL.
As for `CCOc1ccccc1CNCCc1ccc2c(c1)OCO2.Cl`, the figure is 49.6 µg/mL.
`CCOC(=O)C1CCN(S(=O)(=O)c2ccc3c4c(cccc24)C(=O)N3CC)CC1` gave a kinetic solubility of 10.4 µg/mL (≈ 25 µM).
The molecule `Cc1onc(C(=O)N2CCN(c3ccccc3)CC2)c1[N+](=O)[O-]` yielded a solubility (kinetic) above 47.4 µg/mL.
Regarding `Cc1ccc(NC(=O)CCCc2ccccc2)nc1`, the kinetic solubility stood at 36.6 µg/mL (≈ 144 µM).
`CN=CC1=C(O)C(C(=O)OC)C(C)(C)CC1=O` (stereo not drawn) displayed a solubility (kinetic) above 35.9 µg/mL.
Under `CCOC(=O)c1c(C=O)c2sc(C)cc2n1C` stands 1.5 µg/mL (≈ 5.97 µM); under `O=C1C2C3C=CC(CC3)C2C(=O)N1/N=C/c1ccco1` (stereo not drawn), above 40.5 µg/mL; under `CCOc1ncccc1C(=O)NCc1ccccc1Cl`, 33.1 µg/mL (≈ 114 µM).
`CC1CCCC(C)N1C(=O)COC(=O)c1ccc(S(=O)(=O)N(C)c2ccccc2)cc1` (stereo not drawn) returned a kinetic solubility of 6.9 µg/mL (≈ 15.5 µM).
As for `CS(=O)(=O)c1ccc(NCCc2ccccn2)c([N+](=O)[O-])c1`, the figure is 44.2 µg/mL (≈ 138 µM); as for `NC(=O)c1cccnc1Oc1ccc(Cl)cc1`, above 37.3 µg/mL; as for `O=c1[nH]c2ccc(S(=O)(=O)N3CCCC3)cc2[nH]1`, above 40.1 µg/mL.
In turn, `Cc1ccc(Nc2ccc([N+](=O)[O-])ccc2=O)cc1` had a kinetic solubility below 0.3 µg/mL.
Regarding `O=C1NC2(CCCCCC2)C(=O)N1Cc1cccc(Cl)c1`, the solubility (kinetic) amounted to 15.8 µg/mL (≈ 51.5 µM).
For `COc1nc(SCC(=O)Nc2ccccc2Cl)nc(N(C)C)n1`, the solubility (kinetic) was 20.4 µg/mL (≈ 57.7 µM).
Under `Cn1c(/C=C/c2ccc(Cl)cc2)c([N+](=O)[O-])c(=O)n(C)c1=O` stands 5 µg/mL (≈ 15.5 µM).
Under `COCCCNC(=O)c1ccc(-c2nc3ccccc3nc2-c2ccccc2)cc1` stands 32.4 µg/mL (≈ 81.5 µM); under `COc1ccc(OC)c(C(=O)COC(=O)c2cccnc2SC)c1`, 4.2 µg/mL (≈ 12.1 µM); under `CCN(Cc1cc(=O)oc2cc(C)ccc12)c1ccccc1`, 2 µg/mL (≈ 6.82 µM).
Molecule `Cc1ccc(S(=O)(=O)NCc2csc(C)n2)cc1` had a solubility (kinetic) above 42.4 µg/mL.
As for `Cc1ccc(C)c2sc(N)nc12`, the figure is above 26.7 µg/mL; as for `CN1CC(=O)N=C1N.Cl`, above 22.4 µg/mL; as for `CCC1(c2ccccc2)NC(=O)N(CC(=O)NC2CCCCCC2)C1=O` (stereo not drawn), 37.8 µg/mL (≈ 106 µM).
As to `Cc1cn(C2CCC(CO)O2)c(=O)[nH]c1=O` (stereo not drawn), the kinetic solubility is above 33.9 µg/mL.
The molecule `Cn1nccc1C(=O)N1CCN(c2ccccc2Cl)CC1` showed a kinetic solubility above 45.7 µg/mL.
As for `O=C(CCc1nc(-c2ccc(F)cc2)no1)Nc1cccc(C(=O)NC2CC2)c1`, the figure is 9.7 µg/mL (≈ 24.6 µM); as for `Cc1cc(NC(=O)NC(C)(C(F)(F)F)C(F)(F)F)no1`, above 45.8 µg/mL.
As for `Cc1ccsc1C1C(C#N)=C(N)OC2=C1C(=O)CCC2` (stereo not drawn), the kinetic solubility was found to be 41.9 µg/mL (≈ 146 µM).
In the case of `COc1ccc(CN(C)CC(=O)NC(C)c2ccccc2)c(OC)c1` (stereo not drawn), the solubility (kinetic) was 51.2 µg/mL (≈ 150 µM).
With `CC(C)CC(=O)N1CCN(Cc2ccc3ccccc3c2)CC1`, the solubility (kinetic) was found to be 26.4 µg/mL (≈ 85 µM).
As for `O=S(=O)(Nc1ccncc1)c1ccc(Cl)c(Cl)c1`, the figure is 3.7 µg/mL (≈ 12.2 µM); as for `CCOC(=O)c1cc([N+](=O)[O-])sc1NC(=O)CC`, 5.3 µg/mL (≈ 19.5 µM); as for `Cc1ccccc1-n1c(=O)n(Cc2ccccc2)c(=O)c2[nH]cnc21`, above 49.9 µg/mL.
Under `O=C1c2ccccc2C(=O)N1c1cc([N+](=O)[O-])ccn1` stands 29.2 µg/mL (≈ 108 µM).
Under `CC(OC(=O)c1cccn1C)C(=O)Nc1ccc2c(c1)OCO2` (stereo not drawn) stands 22.5 µg/mL (≈ 71.1 µM).
Turning to `CCOc1ccccc1NS(=O)(=O)c1ccc2[nH]c(=O)[nH]c2c1`, the kinetic solubility was above 50 µg/mL.
For `CC1(C)C(=S)N(Cc2ccccc2)c2ccccc21`, the kinetic solubility was below 0.6 µg/mL.
Under `Cc1ccc(C(=O)Nc2ncc([N+](=O)[O-])s2)cc1` stands 27 µg/mL (≈ 103 µM); under `Cc1ccc(Oc2ccc(OCC(=O)NC3CCS(=O)(=O)C3)cc2)cc1` (stereo not drawn), 7.6 µg/mL (≈ 20.2 µM).
Under `CCN1CCN(C(=O)c2cc(-c3ccc(Cl)s3)nc3ccccc23)CC1` stands 53.5 µg/mL (≈ 139 µM); under `CCOC(=O)C(=CNc1ccc2c(c1)c1ccccc1n2CC)C(=O)OCC`, below 0.4 µg/mL; under `CCCCC(=O)Nc1ccc(C(=O)NCCN2CCOCC2)cc1`, above 50 µg/mL.
`COc1ccc(Br)cc1S(=O)(=O)NCCc1cccs1`: the solubility (kinetic) came to 34.4 µg/mL (≈ 91.4 µM).
With `COc1ccccc1/C=N/OC(=O)c1ccc(C)cc1`, the solubility (kinetic) is below 0.6 µg/mL.
For the molecule `Cc1cccc(NC(=O)CNC(=O)c2cccs2)n1`, the kinetic solubility is above 41.3 µg/mL.
Under `O=C1CSC(c2ccccc2F)N1c1ccccc1F` (stereo not drawn) stands 3.2 µg/mL (≈ 11 µM); under `O=C(COC(=O)Cc1ccsc1)Nc1cccc(Cl)c1`, above 46.5 µg/mL.
As for `O=C(NCc1cccs1)c1cc(-c2ccc(O)cc2)on1`, the figure is 1.7 µg/mL (≈ 5.66 µM); as for `NC(=S)NC1CC2CC1C1C=CCC21` (stereo not drawn), above 31.2 µg/mL.
As for `Cc1ccc(S(=O)(=O)NCC(=O)NNC(=O)c2ccccc2Cl)cc1C`, the figure is above 59.4 µg/mL.
Consider `O=C(CCC(=O)N1CCOCC1)c1ccc(F)cc1`, for which the kinetic solubility was above 39.8 µg/mL.
Regarding `N/C(=N\OC(=O)c1ccc([N+](=O)[O-])cc1Cl)c1ccccn1`, the solubility (kinetic) is 12.8 µg/mL (≈ 39.9 µM).
Under `COc1cccc(CNC(=O)CCCc2c[nH]c3ccccc23)c1` stands 47 µg/mL (≈ 146 µM).
As for `CN(CCO)CCOCCOc1cccc2ccccc12`, the figure is 34.6 µg/mL (≈ 120 µM); as for `Cc1cc(Br)c(NC(=O)COC(=O)c2ccc[n+]([O-])c2)c(Br)c1`, above 66.6 µg/mL; as for `Cc1onc(-c2ccccc2)c1C(=O)NCc1ccc(Cl)cc1`, 1.3 µg/mL (≈ 3.98 µM).
`O=c1c2c3c(sc2[nH]c(=S)n1Cc1ccco1)CCC3` returned a solubility (kinetic) of 34.6 µg/mL (≈ 114 µM).
Under `CSc1ccccc1C(=O)OCC(=O)NCCN1C(=O)CSC1=O` stands above 55.3 µg/mL; under `Cl.Fc1ccc(CN2C3=NCCN3c3ccccc32)cc1`, 43.2 µg/mL; under `CCOC(=O)CC1C(=O)NCCN1S(=O)(=O)c1ccc(C)cc1` (stereo not drawn), above 51.1 µg/mL.
`CC(C)CC(=O)Nc1ccc(S(=O)(=O)N2CCCC2)cc1` showed a solubility (kinetic) above 46.6 µg/mL.
Under `CC(CCc1ccccc1)NC(=O)CCC1CCCC1` (stereo not drawn) stands 14.5 µg/mL (≈ 53 µM); under `O=C(O)CC(NC(=O)C12CC3CC(CC(C3)C1)C2)c1ccc(F)cc1` (stereo not drawn), above 51.8 µg/mL; under `COc1cccc(OCc2nc(-c3ccc(Br)o3)no2)c1`, 7.1 µg/mL (≈ 20.2 µM).
Turning to `CC[C@H](C)[C@H](NC(N)=O)C(=O)NCCc1ccc(OC)cc1`, the kinetic solubility is above 46.1 µg/mL.
Under `O=C(NCc1ccco1)c1cc([N+](=O)[O-])ccc1N1CCOCC1` stands 46.4 µg/mL (≈ 140 µM); under `Cn1nccc1C(=O)OCC(=O)Nc1cccc(Cl)c1`, above 44.1 µg/mL.
As for `O=C(CCN1N=C(c2ccccc2)CCC1=O)NC1CCCC1`, the figure is above 47 µg/mL; as for `Nc1ncc([N+](=O)[O-])cc1S(=O)(=O)c1ccccc1`, 3.8 µg/mL (≈ 13.6 µM); as for `CN1CCN(CCNC(=O)Nc2ccccc2[N+](=O)[O-])CC1`, 45.5 µg/mL (≈ 148 µM).
As for `O=C1/C(=C\c2ccc(O)cc2)SC(=S)N1Cc1ccccc1`, the figure is below 0.7 µg/mL.
For `COC(=O)c1ccc2c(c1)C(C)(C)C(/C=C/c1ccc(O)cc1)=[N+]2C.[I-]`, the solubility (kinetic) worked out at 41.6 µg/mL.
The molecule `CC(NC(=O)CN(C)CC(=O)Nc1ccc(Cl)cc1)c1ccc(F)cc1` (stereo not drawn) returned a solubility (kinetic) above 56.7 µg/mL.
In the case of `O=S(=O)(c1c(F)cccc1F)N1CCCC2CCCCC21` (stereo not drawn), the solubility (kinetic) was found to be 13.3 µg/mL (≈ 42.2 µM).
Under `CC(C)(C)C(=O)OCc1nc(-c2ccc(F)cc2)cs1` stands below 0.6 µg/mL.
As for `Fc1ccc(F)c(CNc2ncnc3cc(Cl)ccc23)c1`, the figure is 1.3 µg/mL (≈ 4.25 µM); as for `O=C1CN(C(=O)c2ccc(Cl)c([N+](=O)[O-])c2)c2ccccc2N1`, above 49.8 µg/mL; as for `Cc1ccc2c(c1)c1nc3ccccc3nc1n2C`, below 0.2 µg/mL.
Under `O=[N+]([O-])c1cccc(-c2ccc(CN3CCN(c4ccccc4)CC3)o2)c1` stands 1.4 µg/mL (≈ 3.85 µM).
`O=S(=O)(NCC1CCCO1)c1ccc(Cl)cc1` (stereo not drawn): the kinetic solubility came out at 25.5 µg/mL (≈ 92.5 µM).
`CCOc1ccc2oc(C(=O)Nc3cc(C)ccn3)c(C)c2c1` gave a solubility (kinetic) of 1.2 µg/mL (≈ 3.87 µM).
As for `O=C(Nc1cccc(Cl)c1)N1CCc2ccccc2C1`, the figure is 1.9 µg/mL (≈ 6.63 µM).
The molecule `Cl.c1ccc2c(c1)CN1CCCC1=N2` came in with a kinetic solubility above 31.3 µg/mL.
As for `Cc1cc(Cc2ccc([N+](=O)[O-])cc2)c(C)cn1`, the figure is above 36.3 µg/mL.
`O=C(NCc1ccccn1)C(=O)Nc1nc(-c2ccccc2)cs1` yielded a solubility (kinetic) of 1.6 µg/mL (≈ 4.73 µM).
As for `Nc1ccccc1SCC(O)Cn1ccc2ccccc21` (stereo not drawn), the figure is above 44.8 µg/mL; as for `O=C(c1cccc(Cl)c1)N1CCn2c1nc1ccccc12`, 0.9 µg/mL (≈ 3.02 µM).
Under `COc1cc2c(C#N)c(N3CCCCC3)nc(N)c2c(N)n1` stands 39.8 µg/mL (≈ 133 µM); under `COc1ccc(-c2nnc(SCC(=O)NC3CC3)o2)cc1`, above 45.8 µg/mL.
As for `CC(C)(C)n1cnc2cc(NCc3ccccc3O)ccc21`, the figure is 34.5 µg/mL (≈ 117 µM).
As to `Br.CN(/N=C/c1ccncc1)C1=NCCN1`, the solubility (kinetic) is above 42.6 µg/mL.

The term kinetic solubility denotes solubility judged after dilution from a stock solution rather than from solid.

The values above are taken from PubChem BioAssay AID1996.
